Test results reported in patent US12680128B2.

Experiments:
APOBEC3A (A3A) = APOBEC3A (A3A) (Homo sapiens, UniProt P31941); assay: A3A deamination of ssDNA with homogeneously 5-modified cytosines (TA cloning assay); format: biochemical; conditions: 8 μM A3A, 37° C., two hours
Method: Single stranded DNA with homogenously modified cytosines was obtained by LATE-PCR as previously described (Schutsky et al. Nucleic Acids Res 2017). Modified triphosphates were obtained from TriLink unless otherwise noted here (mC: NEB, peC/pC: synthesized in house, purified by ion-pair chromatography, Ghanty et al. JACS 2018). 1 ng of purified single stranded DNA was incubated with 8 μM A3A at 37° C. for two hours. This 202 base pair amplicon was PCR amplified and TA cloned. Single clones were sent for Sanger Sequencing. After alignment to the parent 202mer substrate (Table 1), C to T conversions were quantified as a percentage of total Cs.
To determine more exact parameters that define the discrimination as a function of sterics at the C5 position, we synthesized or obtained dxCTP analogs, with variable (x) 5-position substituents, and used established approaches to generate long ssDNA substrates with homogeneous C modifications (36). These substrates were reacted with A3A, reamplified and analyzed for deamination by restriction digestion at a specific site.

[1] = tested on: unmethylated phage gDNA CpG sites; assay: Amplicon sequencing of phage gDNA treated with M.MpeI N374K and SAM or CxSAM, then bisulfite or A3A
[2] = tested on: pMG81-M.MpeI plasmid CCGG sites; conditions: in vivo, plasmid recovered after induced expression
plasmid DNA CpG sites = format: cell-based, E. coli
pUC19 plasmid DNA = assay: pUC19 assay (in vitro transfer of SAM or CxSAM, HpaII/HhaI challenge)
[3] = tested on: E. coli genomic DNA CCWGG sites; assay: Nucleoside LC-MS/MS of genomic DNA after in vivo expression of Dcm variants; conditions: dam-/dcm- E. coli, gDNA

Chain of APOBEC3A (A3A) (P31941 whole entry): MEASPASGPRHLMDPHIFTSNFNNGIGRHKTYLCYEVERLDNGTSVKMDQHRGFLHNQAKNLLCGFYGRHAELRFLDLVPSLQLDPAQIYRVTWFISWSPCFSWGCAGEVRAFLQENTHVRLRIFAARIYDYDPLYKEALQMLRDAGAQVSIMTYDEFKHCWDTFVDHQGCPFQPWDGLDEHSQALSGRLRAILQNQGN

5-propynyl-dC [5pyC]
deamination by A3A of ssDNA with all Cs replaced by the modified base (APOBEC3A (A3A)): undetectable levels of deamination

M.MpeI N374K: CpG M.MpeI Carboxymethyltransferase with a C-terminal His Tag, SEQ ID NO: 1 (lacks His tag) / SEQ ID NO: 2
DNA newly resistant to A3A deamination ([1]; CxSAM, A3A deamination): ~ 50%
DNA modified as 5cxmC (cytosine calls at CpGs after bisulfite) ([1]; CxSAM, bisulfite deamination): ~ 50%
DNA newly modified to be 5mC (cytosine calls at CpGs after bisulfite) ([1]; SAM, bisulfite deamination): ~ 60%
HpaII and MspI digestion pattern of encoding plasmid [2]: faint ~2 kB band resistant to MspI digestion
change of 5cxmC signal in the added presence of the CmoA plasmid (plasmid DNA CpG sites): an increase in 5cxmC signal
in vivo plasmid carboxymethylation (5cxmC) by LC-MS/MS (plasmid DNA CpG sites): can be detected and lost
level of 5cxmC modification across overexpression conditions (plasmid DNA CpG sites): greatest level of 5cxmC modification
protection of pUC19 plasmid from restriction digestion (pUC19 plasmid DNA; CxSAM substrate): newly gains the ability to transfer CxSAM
protection of pUC19 plasmid from restriction digestion (pUC19 plasmid DNA; SAM substrate): transfers SAM less efficiently than the WT enzyme

B1: Dcm N436K: CCWGG Dcm Carboxymethyltransferase with a C-terminal His Tag, SEQ ID NO: 3 / SEQ ID NO: 4 (protein)
chain: MQENISVTDSYSTGNAAQAMLEKLLQIYDVKTLVAQLNGVGENHWSAAILKRALANDSAWHRLSEKEFAHLQTLLPKPPAHHPHYAFRFIDLFAGIGGIRRGFESIGGQCVFTSEWNKHAVRTYKANHYCDPATHHFNEDIRDITLSHKEGVSDEAAAEHIRQHIPEHDVLLAGFPCQPFSLAGVSKKNSLGRAHGFACDTQGTLFFDVVRIIDARRPAMFVLENVKNLKSHDQGKTFRIIMQTLDELGYDVADAEDNGPDDPKIIDGKHFLPQHRERIVLVGFRRDLNLKADFTLRDISECFPAQRVTLAQLLDPMVEAKYILTPVLWKYLYRYAKKHQARGNGFGYGMVYPNNPQSVTRTLSARYYKDGAEILIDRGWDMATGEKDFDDPLNQQHRPRRLTPRECARLMGFEAPGEAKFRIPVSDTQAYRQFGKSVVVPVFAAVAKLLEPKIKQAVALRQQEAQHGRRSRHHHHHH
modifications: C-terminal His tag; Dcm N436K with His tag
CCWGG sites carboxymethylated (5cxmC relative to total CCWGGs) [3]: > 1.5%
formation of 5cxmC in the native E. coli genome [3]: could catalyze the formation of 5cxmC
methylation of cytosine (detection of 5mC) [3]: could methylate cytosine

B2: WT Dcm: E. coli's naturally occurring DNA Cytosine Methyltransferase (Dcm) (protein, UniProt P0AED9 1-472, looked up)
DNA-cytosine methyltransferase: MQENISVTDSYSTGNAAQAMLEKLLQIYDVKTLVAQLNGVGENHWSAAILKRALANDSAWHRLSEKEFAHLQTLLPKPPAHHPHYAFRFIDLFAGIGGIRRGFESIGGQCVFTSEWNKHAVRTYKANHYCDPATHHFNEDIRDITLSHKEGVSDEAAAEHIRQHIPEHDVLLAGFPCQPFSLAGVSKKNSLGRAHGFACDTQGTLFFDVVRIIDARRPAMFVLENVKNLKSHDQGKTFRIIMQTLDELGYDVADAEDNGPDDPKIIDGKHFLPQHRERIVLVGFRRDLNLKADFTLRDISECFPAQRVTLAQLLDPMVEAKYILTPVLWKYLYRYAKKHQARGNGFGYGMVYPNNPQSVTRTLSARYYKDGAEILIDRGWDMATGEKDFDDPLNQQHRPRRLTPRECARLMGFEAPGEAKFRIPVSDTQAYRQFGNSVVVPVFAAVAKLLEPKIKQAVALRQQEAQHGRRSR
formation of 5cxmC in the native E. coli genome [3]: not
methylation of cytosine (detection of 5mC) [3]: could methylate cytosine
